By inhibition is commonly meant how much of the control response was suppressed.

What all share (assay type): cell-based, human
Test [1] concerns SAEC. Put plainly: TNF-α- and LPS-induced ROS generation in SAEC (DHE). The settings on record: TNF-α 2 nM or LPS 1 μg/mL, 16 h. How it is done:
Dihydroethidium (DHE, Molecular Probes) staining for superoxide was carried out as described previously. Briefly, approximately 1×10^5 cells were seeded on chambered slides and starved in serum-free basal medium with AR inhibitor or carrier for 24 h. The cells were treated with TNF-α (2 nM) or LPS (1 μg/mL) or carrier for an additional 16 h. SAEC were rinsed with cold PBS and incubated in PBS containing HEt (2.5 μmol/L) at 37° C. for 15 min. Cells were rinsed in PBS and mounted with fluorsave mounting medium containing DAPI (Vector Laboratories Inc., Burlingame, Calif.). The image of ethidium staining was measured with a Nikon epifluorescence microscope with a 585 nm long-pass filter.

In test [2] the test system is COX-2, iNOS, Bcl-XL, Bax, cyclin D1, E2F2. As to the kind of experiment: RW-induced inflammatory, apoptosis and cell cycle proteins in SAEC (Western blot). The following applies: RW 50 μg/ml, 24 h. The source says: Fourty micrograms of cytoplasmic protein extracts, prepared as described earlier were resolved on 10% SDS-PAGE. After electrophoresis, the proteins were electro transferred to a nitrocellulose membrane, blocked with 5% nonfat milk in TBST, and probed with antibodies against COX-2, NOS2, Bcl-xL, Bax, cyclin D1, E2F2 (1:1,000 dilution) for 2 hr. The blot was then washed, exposed to HRP-conjugated secondary antibodies (1:5,000 dilution) for 1 hr, and the antigen-antibody complex was detected by enhanced chemiluminescence (Amersham Pharmacia Biotech, Piscataway, N.J., USA).
A general note: In western blotting, separated proteins are transferred to a membrane and probed.

Test [3] deals with NF-κB. Put plainly: NF-κB-dependent SEAP reporter assay in TNF-α- or LPS-treated SAEC. As for the experimental part: SAEC cells (1×10^5 cells/well) were plated in 24-well plates, serum starved in basal medium with AR inhibitor, sorbinil and zopolrestate (20 μM) or carrier for 24 h, and transiently transfected with pNF-κB-secretory alkaline phosphatase (SEAP) construct or control plasmid pTALSEAP DNA (Clontech, Palo Alto, Calif.) using the LipofectAMINE Plus reagent. After 6 hours of transfection medium was replaced with fresh medium and cells were incubated with either TNF-α (2 nM) or LPS (1 μg/mL) or carrier for 48 h. The cell culture medium was then harvested and analyzed for SEAP activity, essentially as described by the manufacturer (Clontech, Palo Alto, Calif.), using a 96-well chemiluminescence plate reader.

Test [4] deals with SAEC. As to the kind of experiment: RW-induced ROS generation in SAEC (DHE). The settings on record: SAEC preincubated with AR inhibitor, RW 150 μg/mL. How it is done:
Dihydroethidium (DHE, Molecular Probes) staining for superoxide was carried out as described previously. Briefly, Approximately 1×10^5 cells were seeded on chambered slides and starved in serum-free SABM with or without AR inhibitor for 24 h. The cells were treated with RW for 16 h. SAEC were rinsed with cold PBS and incubated in PBS containing HEt (2.5 mmol/L) at 37° C. for 15 minutes. Cells were rinsed in PBS and mounted with Vectashield Hard Set™ mounting medium with DAPI (Vector Laboratories Inc., Burlingame, Calif.). The image of ethidium staining was measured with a Nikon epifluorescence microscope with a 585 nm long-pass filter.

Test [5] deals with NF-κB and AP-1. As to the kind of experiment: RW-induced NF-κB and AP-1 activation in SAEC (EMSA). As for the experimental part:
The SAEC were pretreated with or without AR inhibitors for 24 h in starving medium, followed by treatment with Ragweed pollens (RW) (50 μg/ml) for 2 h at 37° C. The nuclear extracts were prepared as described. Briefly, SAEC were harvested and washed with cold PBS and suspended in 0.1 ml of hypotonic lysis buffer containing protease inhibitors for 10 min. The cells were then lysed with 5 μl of 10% Nonidet P-40. The homogenate was centrifuged (6000 rpm; 1 min.), and supernatant containing the cytoplasmic extracts was stored frozen at −80° C. The nuclear pellet was resuspended in 50 μl ice-cold nuclear extraction buffer. After 30 min of intermittent mixing, the extract was centrifuged (12000 rpm; 15 min.), and supernatants containing nuclear extracts were secured. The protein content was measured by the Bradford method. If they were not used immediately, they were stored at −80° C. The Consensus oligonucleotides for NF-κB and AP-1 transcription factors were 5′-end labeled using T4 polynucleotide kinase. EMSA was performed as described. The specificity of the assay was examined by competition with an excess of unlabeled oligonucleotide and supershift assays with antibodies to p65.
Background: A gel shift assay detects complexes by their altered migration in electrophoresis.

The test system of test [6] is IL-6, IL-8 and Cox-2 mRNA. Put plainly: TNF-α- and LPS-induced IL-6, IL-8 and Cox-2 mRNA in SAEC (RT-PCR). The settings on record: TNF-α 2 nM or LPS 1 μg/ml, 6 h. As for the experimental part:
The SAEC were grown in 6-well plates at a density of approximately 3.0×10^5 cells/well. After approximately 80% confluence cells were serum-starved in the presence or absence of sorbinil (20 μM) or carrier for 24 h and then stimulated with either TNF-α (2 nM) or LPS (1 μg/mL). Total RNA from SAEC was isolated by using RNeasy kit (Qiagen) as per supplier's instructions. Aliquots of RNA (0.5-1.0 μg) isolated from each sample were reverse transcribed with Omniscript and Sensiscript reverse transcriptase one-step RT-PCR system with HotStar Taq DNApolymerase (Qiagen) at 55° C. for 30 min followed by PCR amplification. The oligonucleotide primer sequences were as follows: 5′-[…]-3′ (SEQ ID NO:3) (sense) and 5′-[…]-3′ (SEQ ID NO:4) (antisense) for IL-6; 5′-[…]-3′ (SEQ ID NO:5) (sense) and 5′-TCT […]-3′ (SEQ ID NO:6) (antisense) for IL-8; 5′-TGAAACCCACTCCA AACACAG-3′ (SEQ ID NO:7) (sense) and 5′-[…]-3′ (SEQ ID NO:8) (antisense) for Cox-2; and 5′-[…]-3′ (SEQ ID NO:9) (sense) and 5′-CGTC […]-3′ (SEQ ID NO:10) (antisense) for β-actin. PCR was carried out in a PCR Sprint thermal cycler (Thermo electron corporation, Milford, Mass.) under the following conditions: initial denaturation at 95° C. for 15 min followed by 35 cycles of 94° C. 1 min, 62° C. 1 min, 72° C. 1 min, and then 72° C. 10 min for final extension. […]

Structures are written as SMILES.

Turning to `O=C(O)Cc1nn(Cc2nc3cc(C(F)(F)F)ccc3s2)c(=O)c2ccccc12` [zopolrestat], in test [1], the “TNF-α- and LPS-induced increase in ROS levels” value is “prevented these changes”. Further, in test [2], the “RW-induced increase of COX-2 and iNOS protein expression” value was “significantly prevented the increase”; the “prevention of RW-induced increase in expression of cyclin D1 and E2F2” value is listed as more than 90%. In addition, the inhibition at 20 µM in test [3] (Homo sapiens, SAEC, AR inhibitor 20 μM, TNF-α 2 nM or LPS 1 μg/mL, 48 h, read-out: inhibition of TNF-α- and LPS-induced NF-κB-dependent SEAP activation) was more than 60%. In test [3] (no TNF-α or LPS), the “basal NF-κB-SEAP activity, compound alone” value was “did not affect”. The “RW-induced increase in cellular ROS levels” value in test [4] is given as “prevented these changes”. The “prevention of RW-induced NF-κB activation and nuclear translocation” value in test [5] (RW 50 μg/ml) is listed as more than 80%. Also, in test [5] (no RW), the “basal NF-κB activity, compound alone” value is reported as “did not affect”. For the same compound, the “prevention of TNF-α- and LPS-induced increase of Cox-2 mRNA levels” value in test [6] is more than 60%.

Source of the values: patent publication US9198915B2, “Methods involving aldose reductase inhibitors” (The Board of Regents of The University of Texas System, priority 2007, dated 2015).
